≈ marks a conversion by molar mass, not a printed value. Calls of active or inactive are those of the source. The calls are words filed in the database; no cut-off is given here.
How the values were obtained:
[1] = test system: Staphylococcus aureus; experiment: Antibacterial activity against methicillin-resistant Staphylococcus aureus ATCC 43300; assay type: functional
[2] = test system: Bacillus subtilis; experiment: Antibacterial activity against Bacillus subtilis; assay type: functional
[3] = test system: Enterococcus faecalis; experiment: Antibacterial activity against Enterococcus faecalis TISTR 459; assay type: functional
[4] = test system: Enterococcus faecalis; experiment: Antibacterial activity against vancomycin-resistant Enterococcus faecalis ATCC 51299; assay type: functional
[5] = test system: Salmonella typhi; experiment: Antibacterial activity against Salmonella typhi; assay type: functional, Salmonella enterica subsp. enterica serovar Typhi; conditions: Salmonella enterica
[6] = test system: Shigella sonnei; experiment: Antibacterial activity against Shigella sonnei; assay type: functional
[7] = test system: Pseudomonas aeruginosa; experiment: Antibacterial activity against Pseudomonas aeruginosa; assay type: functional
[8] = test system: Staphylococcus aureus; experiment: Induction of morphological changes in methicillin-resistant Staphylococcus aureus ATCC 43300 assessed as cell deformation incubated for 24 hrs by scanning electron microscopic method; assay type: functional, organism-based
[9] = test system: Pseudomonas aeruginosa; experiment: Induction of morphological changes in Pseudomonas aeruginosa assessed as cell deformation incubated for 24 hrs by scanning electron microscopic method; assay type: functional, organism-based
[10] = test system: Staphylococcus aureus; experiment: Synergistic antibacterial activity against methicillin-resistant Staphylococcus aureus ATCC 43300 in presence of vancomycin; assay type: functional
[11] = test system: Staphylococcus aureus; experiment: Synergistic antibacterial activity against methicillin-resistant Staphylococcus aureus ATCC 43300 assessed as fractional inhibitory concentration index in presence of vancomycin; assay type: functional
[12] = test system: Pseudomonas aeruginosa; experiment: Synergistic antibacterial activity against Pseudomonas aeruginosa in presence of vancomycin; assay type: functional
[13] = test system: Pseudomonas aeruginosa; experiment: Synergistic antibacterial activity against Pseudomonas aeruginosa assessed as fractional inhibitory concentration index in presence of vancomycin; assay type: functional
[14] = test system: Staphylococcus aureus; experiment: Induction of morphological changes in methicillin-resistant Staphylococcus aureus ATCC 43300 assessed as cell deformation at MIC incubated for 24 hrs in presence of vancomycin by scanning electron microscopic method; assay type: functional, organism-based
[15] = test system: Pseudomonas aeruginosa; experiment: Induction of morphological changes in Pseudomonas aeruginosa assessed as cell deformation incubated for 24 hrs in presence of vancomycin by scanning electron microscopic method; assay type: functional, organism-based

SMILES	MIC [1] [mg/L]	MIC [2] [mg/L]	MIC [3] [mg/L]	MIC [4] [mg/L]	MIC [5] [mg/L]	MIC [6] [mg/L]	MIC [7] [mg/L]	Activity [8]	Activity [9]	MIC [10] [mg/L]	fractional inhibitory concentration index (FICI) [11]	MIC [12] [mg/L]	fractional inhibitory concentration index (FICI) [13]	Activity [14]	Activity [15]
COc1cc2oc3cc(O)c(OC)c(CCC(C)(C)OC(C)=O)c3c(=O)c2c2c1CCC(C)(C)O2	> 300	300 (≈ 619 µM)	> 300	> 300	300 (≈ 619 µM)	300 (≈ 619 µM)	300 (≈ 619 µM)	–	–	–	–	–	–	–	–
COc1c(O)cc2oc3cc4c(c(O)c3c(=O)c2c1CCC(C)(C)O)CCC(C)(C)O4	18.8 (≈ 43.8 µM)	18.8 (≈ 43.8 µM)	> 300	> 300	150 (≈ 350 µM)	300 (≈ 700 µM)	75 (≈ 175 µM)	Active	Active	4.98	0.375	9.52	0.187	Active	Active
COc1cc2oc3cc(OC)c(OC)c(CC=C(C)C)c3c(=O)c2c(O)c1CC=C(C)C	> 300	75 (≈ 171 µM)	150 (≈ 342 µM)	300 (≈ 684 µM)	300 (≈ 684 µM)	> 300	300 (≈ 684 µM)	–	–	–	–	–	–	–	–
CN[C@H](CC(C)C)C(=O)N[C@H]1C(=O)N[C@@H](CC(N)=O)C(=O)N[C@H]2C(=O)N[C@H]3C(=O)N[C@H](C(=O)N[C@H](C(=O)O)c4cc(O)cc(O)c4-c4cc3ccc4O)[C@H](O)c3ccc(c(Cl)c3)Oc3cc2cc(c3O[C@@H]2O[C@H](CO)[C@@H](O)[C@H](O)[C@H]2O[C@H]2C[C@](C)(N)[C@H](O)[C@H](C)O2)Oc2ccc(cc2Cl)[C@H]1O [VANCOMYCIN]	2.34 (≈ 1.61 µM)	2.34 (≈ 1.61 µM)	2.34 (≈ 1.61 µM)	2.34 (≈ 1.61 µM)	2.34 (≈ 1.61 µM)	2.34 (≈ 1.61 µM)	2.34 (≈ 1.61 µM)	–	–	–	–	–	–	–	–
COc1cc2oc3cc(O)c(OC)c(CCC(C)(C)O)c3c(=O)c2c(O)c1CC=C(C)C	18.8 (≈ 42.4 µM)	9.37 (≈ 21.2 µM)	150 (≈ 339 µM)	> 300	300 (≈ 678 µM)	300 (≈ 678 µM)	18.8 (≈ 42.4 µM)	–	–	–	–	–	–	–	–
COc1cc2oc3cc(O)c(CC=C(C)C)c(O)c3c(=O)c2c(CC=C(C)C)c1O	9.37 (≈ 22.8 µM)	75 (≈ 183 µM)	75 (≈ 183 µM)	–	37.5 (≈ 91.4 µM)	75 (≈ 183 µM)	4.67 (≈ 11.4 µM)	–	–	–	–	–	–	–	–
CC(C)=CCc1c(O)cc2oc3cc(O)c(O)c(CC=C(C)C)c3c(=O)c2c1O	4.68 (≈ 11.8 µM)	18.8 (≈ 47.3 µM)	9.37 (≈ 23.6 µM)	–	18.8 (≈ 47.3 µM)	18.8 (≈ 47.3 µM)	18.8 (≈ 47.3 µM)	–	–	–	–	–	–	–	–
O=c1c2cc(O)c(O)cc2oc2cc(O)cc(O)c12	18.8 (≈ 72.1 µM)	37.5 (≈ 144 µM)	300 (≈ 1150 µM)	> 300	> 300	> 300	37.5 (≈ 144 µM)	–	–	–	–	–	–	–	–
COc1c(O)cc2oc3cc4c(c(O)c3c(=O)c2c1CC=C(C)C)CCC(C)(C)O4	1.17 (≈ 2.85 µM)	2.34 (≈ 5.7 µM)	> 300	> 300	300 (≈ 731 µM)	300 (≈ 731 µM)	2.34 (≈ 5.71 µM)	Active	Active	1.75	0.75	2.63	0.375	–	–
COc1cc2oc3cc(O)c(CC=C(C)C)c(O)c3c(=O)c2c(CC=C(C)C)c1OC	18.8 (≈ 44.2 µM)	75 (≈ 177 µM)	75 (≈ 177 µM)	–	150 (≈ 353 µM)	150 (≈ 353 µM)	18.8 (≈ 44.2 µM)	–	–	–	–	–	–	–	–
COc1cc2oc3cc(O)c(O)c(CC=C(C)C)c3c(=O)c2c(O)c1CC=C(C)C	9.37 (≈ 22.8 µM)	18.8 (≈ 45.7 µM)	300 (≈ 731 µM)	300 (≈ 731 µM)	150 (≈ 365 µM)	150 (≈ 365 µM)	18.8 (≈ 45.7 µM)	–	–	–	–	–	–	–	–
COc1c(O)cc2oc3cc(O)c(CC=C(C)C)c(O)c3c(=O)c2c1CC=C(C)C [MANGOSTIN]	0.585 (≈ 1.43 µM)	2.34 (≈ 5.7 µM)	150 (≈ 365 µM)	150 (≈ 365 µM)	18.8 (≈ 45.7 µM)	150 (≈ 365 µM)	0.292 (≈ 0.713 µM)	Active	Active	0.877	0.375	0.439	0.187	–	–
COc1cc2oc3cc(O)c(OC)c(CCC(C)C)c3c(=O)c2c(O)c1CCC(C)C	37.5 (≈ 87.5 µM)	150 (≈ 350 µM)	75 (≈ 175 µM)	–	150 (≈ 350 µM)	150 (≈ 350 µM)	150 (≈ 350 µM)	–	–	–	–	–	–	–	–
COc1cc2oc3cc(O)c(OC)c(CC=C(C)C)c3c(=O)c2c2c1CCC(C)(C)O2	> 300	75 (≈ 177 µM)	75 (≈ 177 µM)	150 (≈ 353 µM)	300 (≈ 707 µM)	300 (≈ 707 µM)	300 (≈ 707 µM)	–	–	–	–	–	–	–	–
COc1cc2oc3cc(O)c(OC)c(CC=C(C)C)c3c(=O)c2c(O)c1CC=C(C)C	4.68 (≈ 11 µM)	2.34 (≈ 5.51 µM)	300 (≈ 707 µM)	300 (≈ 707 µM)	> 300	> 300	9.37 (≈ 22.1 µM)	–	–	–	–	–	–	–	–
COc1c(OCC=C(C)C)cc2oc3cc(OCC=C(C)C)c(CC=C(C)C)c(O)c3c(=O)c2c1CC=C(C)C	> 300	> 300	300 (≈ 549 µM)	–	> 300	> 300	300 (≈ 549 µM)	–	–	–	–	–	–	–	–
COc1c(O)cc2oc3cc4c(c(O)c3c(=O)c2c1CCC(C)(C)OC)CCC(C)(C)O4	9.37 (≈ 21.2 µM)	9.37 (≈ 21.2 µM)	> 300	> 300	300 (≈ 678 µM)	300 (≈ 678 µM)	75 (≈ 169 µM)	–	–	–	–	–	–	–	–
COc1c(OS(=O)(=O)c2ccc(Br)cc2)cc2oc3cc(OS(=O)(=O)c4ccc(Br)cc4)c(CC=C(C)C)c(O)c3c(=O)c2c1CC=C(C)C	> 300	> 300	> 300	–	> 300	> 300	300 (≈ 354 µM)	–	–	–	–	–	–	–	–
COc1cc2oc3cc(O)c(OC)c(CCC(C)(C)O)c3c(=O)c2c2c1CCC(C)(C)O2	150 (≈ 339 µM)	150 (≈ 339 µM)	> 300	> 300	300 (≈ 678 µM)	300 (≈ 678 µM)	300 (≈ 678 µM)	–	–	–	–	–	–	–	–
COc1c(O)cc2oc3cc(O)c4c(c3c(=O)c2c1CCC(C)(C)O)OC(C)(C)CC4	37.5 (≈ 87.5 µM)	37.5 (≈ 87.5 µM)	> 300	> 300	300 (≈ 700 µM)	300 (≈ 700 µM)	300 (≈ 700 µM)	–	–	–	–	–	–	–	–

Source: ChEMBL document CHEMBL4725365, “Modified tetra-oxygenated xanthones analogues as anti-MRSA and P. aeruginosa agent and their synergism with vancomycin” (2020)
